US4711890A, “Pharmaceutical compositions containing azanaphthalene-carboxamide derivatives, azanaphthalene-carboxamide derivatives and process for their use” (Rhone-Poulenc Sante, priority 1982, dated 1987)

Key:
[1] = target: cerebral receptor sites for benzodiazepines; test: Affinity for the cerebral-type receptor sites for benzodiazepines: displacement of 3H-diazepam on rat brain membranes; assay type: binding; conditions: 3H-diazepam displacement
Experimental: The affinity of the compounds of formula (I) for the cerebral receptor sites for benzodiazepines was determined, by the method of MOHLER et al, Life Sciences, 1977, 20, 2101, on rat brain membranes.

[2] = GHAZAL et al., Egypt. Pharm. Bull., 1960, 42, 465; cited from earlier work
[3] = target: T1, peripheral-type receptor sites for benzodiazepines (Rattus norvegicus, UniProt P16257); test: Affinity for the peripheral-type receptor sites for benzodiazepines: displacement of 3H-diazepam on rat kidney membranes; assay type: binding; conditions: for Ki: rat kidney membranes, 3H-diazepam displacement
T1 construct: on rat kidney membranes; from tissue; host or cells: rat kidney membranes
Experimental: The affinity of the compounds of formula (I) for the peripheral-type receptor sites was determined, using the procedure of BRAESTRUP et al., Proc. Natl. Acad. Sci. U.S.A., 1977, 74, 3805, on rat kidney membranes.

[4] = tested on: binding sites for [^3 H] diazepam in the brain; conditions: [3H] diazepam sites; cited from earlier work
[5] = tested on: binding sites for [^3 H] diazepam in the kidneys; conditions: kidneys / peripheral level, [3H] diazepam sites; cited from earlier work

Compound	Ki [1] [nM]	Ki [3] [nM]	other results
CNC1=Nc2ccc(Cl)cc2C(c2ccccc2)=[N+]([O-])C1 [Chlorodiazepoxide, reference compound]	80		
CCN(CC)C(=O)c1cc(-c2ccccc2)nc2ccccc12 [Example 1, N,N-diethyl-2-phenylquinoline-4-carboxamide]	50		pharmacological properties described in the literature [2]: uricosuric and anti-pyretic properties
O=C(c1cc(-c2ccccn2)nc2ccccc12)N1CCCCC1 [Example 3, 1-[2-(pyridin-2-yl)-quinolin-4-yl]-carbonylpiperidine]	160		
O=C(c1cc(-c2ccccc2)nc2ccccc12)N1CCCCC1 [Example 4, 1-(2-phenylquinolin-4-yl)-carbonylpiperidine]	40		
O=C(c1cc(-c2ccccc2)nc2ccccc12)N1CCOCC1 [Example 5, 4-(2-phenylquinolin-4-yl)-carbonylmorpholine]	90		
CCN(CC)C(=O)c1cc(-c2ccccc2Cl)nc2ccccc12 [Example 8, N,N-diethyl-2-(2-chlorophenyl)-quinoline-4-carboxamide]		117	
CCN(CC)C(=O)c1cc(-c2ccc(F)cc2)nc2ccccc12 [Example 10, N,N-diethyl-2-(4-fluorophenyl)-quinoline-4-carboxamide]	210	160	
O=C(c1cc(-c2ccccc2)nc2ccccc12)N1CCCC1 [Example 11, 1-(2-phenylquinolin-4-yl)-carbonylpyrrolidine]	130		
CCC(C)N(C)C(=O)c1cc(-c2ccccc2Cl)nc2ccccc12 (stereo not drawn) [Example 15, N-methyl-N-(1-methylpropyl)-2-(2-chlorophenyl)-quinoline-4-carboxamide]		31	
CCC(C)N(C(=O)c1cc(-c2ccccc2Cl)nc2ccccc12)C(C)CC (stereo not drawn) [Example 16, N,N-di-(1-methylpropyl)-2-(2-chlorophenyl)-quinoline-4-carboxamide]		72	
CCC(C)N(CC)C(=O)c1cc(-c2ccccc2Cl)nc2ccccc12 (stereo not drawn) [Example 17, N-ethyl-N-(1-methylpropyl)-2-(2-chlorophenyl)-quinoline-4-carboxamide]		9	
O=C(c1cc(-c2ccccc2Cl)nc2ccccc12)N1CCCCC1 [Example 18, 1-[2-(2-chlorophenyl)-quinolin-4-yl]-carbonylpiperidine]		360	
CCN(CC)C(=O)c1cc(-c2ccccc2)cc2ccccc12 [Example 20, N,N-diethyl-3-phenylnaphthalene-1-carboxamide]		2	preferential action on peripheral receptors (versus cerebral) ([3]; peripheral versus cerebral benzodiazepine receptors): act preferentially on peripheral receptors
CCC(C)N(C)C(=O)c1cc(-c2ccccc2)cc2ccccc12 (stereo not drawn) [Example 21, N-methyl-N-(1-methylpropyl)-3-phenylnaphthalene-1-carboxamide]		58	
CCN(CC)C(=O)c1nc(-c2ccccc2Cl)nc2ccccc12 [Example 22, N,N-diethyl-2-(2-chlorophenyl)-quinazoline-4-carboxamide]		270	
CCN(CC)C(=O)c1cc(-c2ccc(C)cc2)nc2ccccc12 [Example 24, N,N-diethyl-2-(4-methylphenyl)-quinoline-4-carboxamide]	330		
CCN(CC)C(=O)c1nc(-c2ccccc2)nc2ccccc12 [Example 25, N,N-diethyl-2-phenylquinazoline-4-carboxamide]	390		
O=C(c1nc(-c2ccccc2)nc2ccccc12)N1CCCC1 [Example 26, 1-[(2-phenylquinazolin-4-yl)-carbonyl]-pyrrolidine]	90		
O=C(c1nc(-c2ccccc2)nc2ccccc12)N1CCCCC1 [Example 27, 1-[(2-phenylquinazolin-4-yl)-carbonyl]-piperidine]	70		
CCN(CC)C(=O)c1cc(-c2ccc(Cl)c(Cl)c2)nc2ccccc12 [Example 37, N,N-diethyl-2-(3,4-dichlorophenyl)-quinoline-4-carboxamide]		117	
CCN(CC)C(=O)c1cc(-c2ccccc2F)nc2ccccc12 [Example 38, N,N-diethyl-2-(2-fluorophenyl)-quinoline-4-carboxamide]	310		
CC1CCCC(C)N1C(=O)c1cc(-c2ccccc2Cl)nc2ccccc12 (stereo not drawn) [Example 39, 1-{[2-(2-chlorophenyl)-quinolin-4-yl]-carbonyl}-2,6-dimethylpiperidine]		54	
CCC(C)N(C)C(=O)c1cc(-c2ccccc2)nc2ccccc12 (stereo not drawn) [Example 43, N-methyl-N-(1-methylpropyl)-2-phenylquinoline-4-carboxamide]		100	
CCN(CCC1CCNCC1)C(=O)c1cc(-c2ccccc2)nc2ccccc12 [Example 49, N-ethyl-N-[2-(piperidin-4-yl)-ethyl]-2-phenylquinoline-4-carboxamide]	400		
CCC(C)N(C)C(=O)c1nc(-c2ccccc2)cc2ccccc12 (stereo not drawn) [Example 51, N-methyl-N-(1-methylpropyl)-3-phenylisoquinoline-1-carboxamide]		45	
O=C1CCN(C(=O)c2nc(-c3ccccc3)nc3ccccc23)CC1 [Example 53, 1-[(2-phenylquinazolin-4-yl)-carbonyl]-piperidin-4-one]	270		
CN1C(=O)CN=C(c2ccc(Cl)cc2)c2cc(Cl)ccc21 [Ro-5-4864, 7-chloro-5-(p-chlorophenyl)-1,3-dihydro-1-methyl-2H-1,4-benzodiazepin-2-one]			affinity / activity at brain (central) binding sites, in words [4]: inactive; affinity / activity at kidney (peripheral) binding sites, in words [5]: very active
O=C1CN=C(c2ccccc2Cl)c2cc([N+](=O)[O-])ccc2N1 [clonazepam]			affinity / activity at brain (central) binding sites, in words [4]: very strong affinity; affinity / activity at kidney (peripheral) binding sites, in words [5]: virtually inactive
